The record followed here is patent publication US20250179088A9 (ZYMEWORKS BC INC., priority 2020, published 2025).

One experiment addresses T1, TLR8 (Homo sapiens, UniProt Q9NR97).
T1 sequence (Q9NR97 27-1041): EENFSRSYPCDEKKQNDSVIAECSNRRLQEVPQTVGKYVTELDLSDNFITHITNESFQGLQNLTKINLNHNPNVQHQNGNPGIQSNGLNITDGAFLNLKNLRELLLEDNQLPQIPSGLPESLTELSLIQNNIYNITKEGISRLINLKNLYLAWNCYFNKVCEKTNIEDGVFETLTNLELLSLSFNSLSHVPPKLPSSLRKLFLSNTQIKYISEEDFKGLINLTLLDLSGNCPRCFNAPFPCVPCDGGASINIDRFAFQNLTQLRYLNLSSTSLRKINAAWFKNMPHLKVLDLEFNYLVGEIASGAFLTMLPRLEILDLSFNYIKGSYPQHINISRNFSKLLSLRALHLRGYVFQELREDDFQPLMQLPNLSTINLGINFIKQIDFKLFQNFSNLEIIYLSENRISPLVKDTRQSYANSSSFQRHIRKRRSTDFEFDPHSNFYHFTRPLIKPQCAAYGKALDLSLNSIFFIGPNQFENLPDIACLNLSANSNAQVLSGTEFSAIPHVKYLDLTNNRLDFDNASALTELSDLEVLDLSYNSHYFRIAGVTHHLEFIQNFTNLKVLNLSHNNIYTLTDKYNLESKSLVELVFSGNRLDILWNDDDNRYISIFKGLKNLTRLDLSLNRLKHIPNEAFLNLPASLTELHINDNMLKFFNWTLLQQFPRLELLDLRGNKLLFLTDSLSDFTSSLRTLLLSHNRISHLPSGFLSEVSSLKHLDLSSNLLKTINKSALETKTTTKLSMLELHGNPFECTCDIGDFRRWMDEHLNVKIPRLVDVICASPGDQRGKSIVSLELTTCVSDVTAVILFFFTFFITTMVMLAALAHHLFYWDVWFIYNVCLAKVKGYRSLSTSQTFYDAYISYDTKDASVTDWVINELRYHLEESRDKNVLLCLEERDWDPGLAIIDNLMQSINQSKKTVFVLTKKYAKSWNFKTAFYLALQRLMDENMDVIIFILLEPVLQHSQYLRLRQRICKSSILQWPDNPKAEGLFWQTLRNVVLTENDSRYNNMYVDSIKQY
The experiment can be described thus: Reporter gene assay, HEK-Blue TLR8 reporter cells (SEAP). A general note: In a reporter assay the amount or activity of a reporter protein is the signal.

Another experiment addresses T2, TLR7 (Homo sapiens, UniProt Q9NYK1).
T2 sequence (Q9NYK1 27-1049): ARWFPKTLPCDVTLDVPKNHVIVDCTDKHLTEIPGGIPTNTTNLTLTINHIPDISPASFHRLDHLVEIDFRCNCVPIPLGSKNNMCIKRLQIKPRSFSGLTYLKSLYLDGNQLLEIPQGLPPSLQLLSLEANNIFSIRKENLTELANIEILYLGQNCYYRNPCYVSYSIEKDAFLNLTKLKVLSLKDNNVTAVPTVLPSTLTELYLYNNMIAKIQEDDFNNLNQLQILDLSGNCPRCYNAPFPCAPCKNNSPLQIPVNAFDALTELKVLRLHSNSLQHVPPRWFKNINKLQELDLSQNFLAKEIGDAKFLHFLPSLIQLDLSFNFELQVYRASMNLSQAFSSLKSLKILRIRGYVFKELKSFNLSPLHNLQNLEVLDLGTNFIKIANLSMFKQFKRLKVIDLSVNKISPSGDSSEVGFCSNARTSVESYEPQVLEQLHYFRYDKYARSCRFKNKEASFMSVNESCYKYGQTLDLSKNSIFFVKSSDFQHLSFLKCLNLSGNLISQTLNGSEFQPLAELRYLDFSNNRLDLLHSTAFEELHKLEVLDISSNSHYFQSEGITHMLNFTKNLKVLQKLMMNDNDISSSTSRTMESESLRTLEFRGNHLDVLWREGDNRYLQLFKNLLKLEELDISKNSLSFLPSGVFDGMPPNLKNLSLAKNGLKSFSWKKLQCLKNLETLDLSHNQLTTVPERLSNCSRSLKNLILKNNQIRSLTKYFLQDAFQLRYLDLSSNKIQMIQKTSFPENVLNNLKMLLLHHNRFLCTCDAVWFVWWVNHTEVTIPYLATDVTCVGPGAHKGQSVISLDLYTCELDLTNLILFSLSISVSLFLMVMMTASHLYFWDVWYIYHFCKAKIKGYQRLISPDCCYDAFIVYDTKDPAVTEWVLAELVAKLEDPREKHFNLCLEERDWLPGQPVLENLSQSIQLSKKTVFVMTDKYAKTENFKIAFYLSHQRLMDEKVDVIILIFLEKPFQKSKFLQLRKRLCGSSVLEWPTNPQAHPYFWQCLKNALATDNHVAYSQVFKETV
Kind of experiment: Reporter gene assay, HEK-Blue TLR7 reporter cells (SEAP).

The test system of the next experiment is PBMCs. The experiment can be described thus: PBMC assay, IL-6 release (HTRF). Type of experiment: cell-based. The note with it: PBMCs from healthy donors, overnight, IL-6 induction by HTRF, average of quadruplicate. The protocol:
Whole peripheral blood was obtained from healthy donors. PBMCs were isolated from peripheral blood by density gradient centrifugation. […] The plasma layer containing PBMCs was poured into a new tube and washed twice. Isolated PBMCs were either used fresh or thawed from previously frozen. 1×10^5 PBMCs were cultured with titrating concentrations of compounds of Formula I overnight followed by assaying for cytokines by homogeneous time resolved fluorescence (HTRF).
A general note: Time-resolved FRET reads energy transfer from a long-lived donor to a nearby acceptor.

Method for TLR7: (§1) 3×10^4 HEK-Blue™ TLR7 or 3×10^4 TLR8 reporter cells (InvivoGen, San Diego, CA) were treated with titrated (4-fold) amounts of test compound. […] Cells were incubated overnight at 37° C. and 5% CO2, then absorbance (620 and 655 nm) was read on a Synergy™ H1 microplate reader.
Method for TLR8: as §1

Broadly, the EC50 is the concentration needed to bring the measured effect to its halfway point. Read a high EC50 as lower potency in that assay. As for `CCCCc1nc2c(N)nc3ccsc3c2n1Cc1ccc(C[n+]2ccccc2)cc1` [Compound 279, 1-(4-((4-amino-2-butyl-1H-imidazo[4,5-d]thieno[3,2-b]pyridin-1-yl)methyl)benzyl) pyridin-1-ium], the EC50 on TLR8 is greater than 1000 nM; on TLR7 it was less than 1 nM.

As for `CCCCc1nc2c(N)nc3ccsc3c2n1Cc1ccccc1CN1CCN(CCN2CCOCC2)CC1` [Compound 222, 2-butyl-1-(2-((4-(2-morpholinoethyl)piperazin-1-yl)methyl)benzyl)-1H-imidazo[4,5-d]thieno[3,2-b]pyridin-4-amine], the EC50 at TLR8, at TLR7 and in the experiment with PBMCs was greater than 1000 nM in each case.

As for `CCCCc1nc2c(N)nc3ccsc3c2n1Cc1nc(CN(CC)CC)cs1` [Compound 233, 2-butyl-1-((4-((diethylamino)methyl)thiazol-2-yl)methyl)-1H-imidazo[4,5-d]thieno[3,2-b]pyridin-4-amine], the 50% effective concentration (EC50) stood at 880 nM on TLR8, 140 nM on TLR7 and 630 nM in the experiment on PBMCs.

Regarding `CCCCc1nc2c(N)nc3ccsc3c2n1Cc1ccc(CN[C@H](C(=O)O)[C@@H](C)O)cc1` [Compound 298, (4-((4-amino-2-butyl-1H-imidazo[4,5-d]thieno[3,2-b]pyridin-1-yl)methyl)benzyl)-L-threonine], the values for the EC50 at TLR8 and on TLR7 were greater than 1000 nM and 159 nM, respectively.

With `CCOCc1nc2c(N)nc3ccsc3c2n1Cc1ccc(CNC2CC(F)(F)C2)cc1` [Compound 291, 1-(4-(((3,3-difluorocyclobutyl)amino)methyl)benzyl)-2-(ethoxymethyl)-1H-imidazo[4,5-d]thieno[3,2-b]pyridin-4-amine], the EC50 is 1130 nM on TLR8 and 14 nM at TLR7.

Take `CCCCc1nc2c(N)nc3ccsc3c2n1Cc1ccc(CN2CCC[C@H]2C(=O)O)cc1` [Compound 300, (4-((4-amino-2-butyl-1H-imidazo[4,5-d]thieno[3,2-b]pyridin-1-yl)methyl)benzyl)-L-proline]: the EC50 at TLR8 and on TLR7 was greater than 1000 nM in each case.

As for `CCCCc1nc2c(N)nc3ccsc3c2n1Cc1ccc(CN(CCC)CCC)cc1` [Compound 277, 2-butyl-1-(4-((dipropylamino)methyl)benzyl)-1H-imidazo[4,5-d]thieno[3,2-b]pyridin-4-amine], the EC50 on TLR8 was 404 nM; on TLR7, less than 1 nM.

For `CCCCc1nc2c(N)nc3ccsc3c2n1Cc1ccc(CN[C@H](CO)[C@@H](C)CC)cc1` [Compound 296, (2S,3S)-2-((4-((4-amino-2-butyl-1H-imidazo[4,5-d]thieno[3,2-b]pyridin-1-yl)methyl)benzyl)amino)-3-methylpentan-1-ol], the figures for the concentration giving a half-maximal response (EC50) on TLR8 and on TLR7 were 134 nM and less than 1 nM, respectively.

On to `CCOCc1nc2c(N)nc3ccsc3c2n1Cc1ccc(CN2CCNCC2)cc1` [Compound 289, 2-(ethoxymethyl)-1-(4-(piperazin-1-ylmethyl)benzyl)-1H-imidazo[4,5-d]thieno[3,2-b]pyridin-4-amine], for which the EC50 at TLR8 was greater than 1000 nM; on TLR7 it was 9 nM.

Consider `CCOCc1nc2c(N)nc3ccsc3c2n1Cc1ccc(CN(CC)CC)cc1` [Compound 290, 1-(4-((diethylamino)methyl)benzyl)-2-(ethoxymethyl)-1H-imidazo[4,5-d]thieno[3,2-b]pyridin-4-amine], for which the figures for the EC50 on TLR8 and at TLR7 were 1030 nM and 4 nM, respectively.

Regarding `CCCCc1nc2c(N)nc3ccsc3c2n1Cc1ccc(CNCCC(=O)N[C@@H](Cc2cnc[nH]2)C(=O)O)cc1` [Compound 301, (3-((4-((4-amino-2-butyl-1H-imidazo[4,5-d]thieno[3,2-b]pyridin-1-yl)methyl)benzyl)amino)propanoyl)-L-histidine], the EC50 on TLR8 was greater than 1000 nM; on TLR7, 348 nM.

Take `CCCCc1nc2c(N)nc3ccsc3c2n1Cc1ccc(CNCCCC[C@H](N)C(=O)O)cc1` [Compound 305, N^6-(4-((4-amino-2-butyl-1H-imidazo[4,5-d]thieno[3,2-b]pyridin-1-yl)methyl)benzyl)-L-lysine]: the values for the EC50 on TLR8 and on TLR7 were greater than 1000 nM and 108 nM, respectively.

For the compound `CCCCc1nc2c(N)nc3ccsc3c2n1Cc1ccc(CNc2nnc[nH]2)cc1` [Compound 272, 1-(4-(((4H-1,2,4-triazol-3-yl)amino)methyl)benzyl)-2-butyl-1H-imidazo[4,5-d]thieno [3,2-b]pyridin-4-amine], the EC50 is greater than 1000 nM at TLR8 and 33 nM on TLR7.

For `CCCCc1nc2c(N)nc3ccsc3c2n1Cc1ccc(C[N+]23CCN(CC2)CC3)cc1` [Compound 295, 1-(4-((4-amino-2-butyl-1H-imidazo[4,5-d]thieno[3,2-b]pyridin-1-yl)methyl)benzyl)-1,4-diazabicyclo[2.2.2]octan-1-ium], the 50% effective concentration (EC50) on TLR8 and at TLR7 was greater than 1000 nM throughout.

In the case of `CCOCc1nc2c(N)nc3ccsc3c2n1Cc1ccc(CN[C@H](CO)[C@@H](C)CC)cc1` [Compound 292, (2S,3S)-2-((4-((4-amino-2-(ethoxymethyl)-1H-imidazo[4,5-d]thieno[3,2-b]pyridin-1-yl)methyl)benzyl)amino)-3-methylpentan-1-ol], the EC50 came to 674 nM at TLR8 and 3 nM on TLR7.

In the case of `CCOCc1nc2c(N)nc3ccsc3c2n1Cc1ccc(CNCc2cc[nH]c2)cc1` [Compound 293, 1-(4-((((1H-pyrrol-3-yl)methyl)amino)methyl)benzyl)-2-(ethoxymethyl)-1H-imidazo [4,5-d]thieno[3,2-b]pyridin-4-amine], the EC50 on TLR8 is greater than 1000 nM; at TLR7, 7 nM.

For the compound `CCCCc1nc2c(N)nc3ccsc3c2n1Cc1ccc(CN[C@H](C(=O)O)[C@@H](C)CC)cc1` [Compound 297, (4-((4-amino-2-butyl-1H-imidazo[4,5-d]thieno[3,2-b]pyridin-1-yl)methyl)benzyl)-L-isoleucine], the concentration for a half-maximal effect (EC50) on TLR8 was greater than 1000 nM; at TLR7 it was 676 nM.

For the compound `CCCCc1nc2c(N)nc3ccsc3c2n1Cc1ccc(CN(CC(=O)O)CC(=O)O)cc1` [Compound 299, 2,2′-((4-((4-amino-2-butyl-1H-imidazo[4,5-d]thieno[3,2-b]pyridin-1-yl)methyl)benzyl)azanediyl)diacetic acid], the EC50 at TLR8 is greater than 1000 nM; on TLR7, 446 nM.

For `CCCCc1nc2c(N)nc3ccsc3c2n1Cc1ccc(CN2CCN(CCc3ccccn3)CC2)cc1` [Compound 275, 2-butyl-1-(4-((4-(2-(pyridin-2-yl)ethyl)piperazin-1-yl)methyl)benzyl)-1H-imidazo[4,5-d]thieno[3,2-b]pyridin-4-amine], the EC50 at TLR8 and on TLR7 was greater than 1000 nM each time.
